Data from patent publication US7626075B2, “Growth of foreign cells in fetal animals facilitated by conditional and selective destruction of native host cells” (priority 2002, dated 2009).
Like-named read-outs stand apart in the source and are kept apart here.

Legend:
[1] = test system: pancreatic islets; settings: injected into fetal animals; cited from earlier work
[2] = test system: pancreatic islets; settings: injected into fetal animals; cited from earlier work; remark: listed apart in the source
[3] = test system: Huh-7 cells stably transfected with AlbxTK; test: Gancyclovir sensitivity of Huh-7 cells transfected with AlbxTK, propidium iodine FACS; format: cell-based, human
Procedure: Mouse and human liver cell lines were transfected with constructs containing delta thymidine kinase under the control of either a porcine albumin or α-fetoprotein (AFP) promoter. The mouse cell line (TIB73) is a line of mature hepatocytes in which albumin is expressed. The human cell line (Huh-7) is a line of hepatocellular carcinoma cells that express predominantly AFP. The transfected cells were tested for thymidine kinase by Western blot. To assess the function of mutated thymidine kinase, Huh-7 cells were stably transfected with AlbxTK. Transfected cells were selected using 200 μg/ml Zeocin. Transfected cells as well as untransfected cells were plated in duplicate in 24-well plates at a 40 percent confluence ratio. Gancyclovir was added to the cells in the culture media at different concentrations (4 μM, 8 μM, and 16 μM. […]

[4] = test system: untransfected Huh-7 cells; test: Gancyclovir effect on untransfected cells, propidium iodine FACS; format: cell-based, human; settings: gancyclovir 4, 8, 16 μM in culture media
Procedure: To assess the function of mutated thymidine kinase, Huh-7 cells were stably transfected with AlbxTK. Transfected cells were selected using 200 μg/ml Zeocin. Transfected cells as well as untransfected cells were plated in duplicate in 24-well plates at a 40 percent confluence ratio. Gancyclovir was added to the cells in the culture media at different concentrations (4 μM, 8 μM, and 16 μM. After 5 days, the cells were trypsinized, washed twice in PBS, and stained with propidium iodine for FACS analysis.

[5] = test system: fetal mice heterozygous for thymidine kinase under the albumin promoter; settings: for fetal hepatocyte injury (histology): 14 days gestation
Source text: The suicide gene product preferably is expressed in the appropriate tissue of the fetal host mammal at a level sufficient to be sensitive to a prodrug. The optimal dose of a prodrug depends on the prodrug, the particular suicide gene, the level of suicide gene expression in the target cells, zygosity of the fetal mammal, route of administration, and placental transport. Optimal doses can readily be determined by administering increasing doses of the prodrug to the pregnant mammal, assessing the effect on the target cells using standard pathology methods and assessing the effect on fetal survival using ultrasound and pathology techniques. The optimal dose would produce significant cell injury (>20%) with a minimum of fetal deaths (<15%).
Transgenic mice were produced with the FVB strain containing the mutated thymidine kinase transgene under the albumin promoter. […] These males were bred with non-transgenic FVB mice. At 14 days gestation, gancyclovir (0 to 100 mg/kg body weight) was injected intravenously into the pregnant mice. Tissues from the mothers and fetuses were analyzed by histology.

[6] = test system: non-transgenic FVB mice (mothers); test: Gancyclovir i.v. to pregnant non-transgenic mice, histology of the mothers; format: in vivo, mouse; settings: any dose (0 to 100 mg/kg i.v.)
Source text: These males were bred with non-transgenic FVB mice.

[7] = test system: fetal pig liver; test: Engraftment of human hepatocytes in fetal pigs after gancyclovir to the sow and human cord blood cell infusion; format: in vivo; settings: gancyclovir 100 mg/kg i.v. to sow
Procedure: A non-transgenic sow is bred with a boar that is hemizygous for a mutated thymidine kinase transgene under the control of an albumin promoter. Pregnancy is confirmed with ultrasound and gancyclovir (100 mg/kg, i.v.) is administered at 40 days gestation. A laparotomy is performed at 45 days. Each pig is infused with 10×10^6 human cord blood cells. The piglets are delivered at term by Caesarean section. Blood is drawn from each fetal pig and analyzed for the presence of the suicide transgene using PCR. Serum is tested for the presence of human liver proteins, including albumin, α1-antitrypsin, and serum amyloid A. Sections of liver are frozen and stained for human albumin.

[8] = test system: mice expressing thymidine kinase under the albumin promoter; test: Engraftment of human hepatocytes in transgenic mice given gancyclovir after birth; format: in vivo, mouse; settings: 50 mg/kg on days 1 and 3 at 14 days of age; sacrificed thirty days later
Procedure: Transgenic mice are produced that express the thymidine kinase gene under the albumin promoter. The male mice are bred with wild type females. Human hepatocytes (2×10^6 per fetal mouse) are injected at 17 days gestation, just prior to delivery. At 14 days of age, the mice are injected with gancyclovir (50 mg/kg) on days 1 and 3 or with the vehicle. Thirty days later, the mice are sacrificed.

[9] = test system: hepatocytes of adult transgenic mice; settings: administered to adult transgenic mice; cited from earlier work

Structure (SMILES)	effect on fetal pancreatic islets [1]	effect on maternal islets [1]	effect on fetal pancreatic islets [2]	effect on maternal islets [2]	cell death ([3]; 8 or 16 μM gancyclovir, 5 days)	cell killing ([3]; 7 days)	effect on non-transfected cells [4]	fetal survival ([5]; 25 mg/kg intravenous injection to pregnant mouse)	fetal survival ([5]; 50 mg/kg and higher, to pregnant mouse)	fetal hepatocyte injury (histology) ([5]; 50 mg/kg i.v. to pregnant mouse)	fetal hepatocyte injury (histology) ([5]; 100 mg/kg i.v. to pregnant mouse)	injury to the non-liver tissues in the fetal mice ([5]; mouse, in vivo)	placental transfer ([5]; mouse, in vivo, iv)	injury to the hepatocytes of the mother [6]	levels of human albumin, α1-antitrypsin inhibitor and serum amyloid A ([7]; piglets without thymidine kinase transgene)	liver engrafted with human hepatocytes ([7]; pigs with thymidine kinase suicide gene, average)	liver engrafted with human hepatocytes ([7]; pigs without suicide transgene)	engraftment with human hepatocytes versus controls not treated [8]	hepatocyte death [9]
CN(N=O)C(=O)N[C@H]1C(O)O[C@H](CO)[C@@H](O)[C@@H]1O (mixture of isomers) [streptozotocin]	destroys the pancreatic islets	relatively little effect	destroys the pancreatic islets	relatively little effect	–	–	–	–	–	–	–	–	–	–	–	–	–	–	–
Nc1nc(O)c2ncn(COC(CO)CO)c2n1 [gancyclovir]	–	–	–	–	significantly more cell death	entirely killed	only a minimal effect	the fetal pups survived	the fetal mice died	massive hepatic necrosis	massive hepatic necrosis	no observable injury	crosses the placental barrier	no observable injury	less than 1 % of levels seen in humans	25 % of the total liver	less than 2 % of the total liver	substantially greater engraftment	Most of the hepatocytes then died off
